From US10561681B2, “Antimetastatic 2H-selenopheno[3,2-h]chromenes, synthesis thereof, and methods of using same agents” (Latvian Institute of Organic Synthesis, priority 2016, dated 2020)
Where “and” joins values, the source holds several entries; their conditions need not be identical. Identical values can stand only once. Like-named read-outs stand apart in the source and are kept apart here.

Assays:
Format in all cases: cell-based
[1] = test system: A549 (human lung carcinoma); experiment: In vitro cytotoxicity, MTT test; conditions: MTT, 72 h, read-out: Cytotoxicity IC50, A549
Experimental: (§1) Anticancer activity of selenopheno[h]chromenes was tested in vitro using cytotoxicity assay. […] About 2-9·10^4 cells/mL (depending on line nature) were placed in 96-well plates immediately after compounds were added to the wells. Untreated cells were used as a control. The plates were incubated for 72 h, 37° C., 5% CO2. The number of surviving cells was determined using 3-(4,5-dimethylthiazol-2-yl)-2,5-diphenyltetrazolinium bromide (MTT). MTT-test: after incubating culture medium was removed and 200 μL fresh medium with 10 mM HEPES was added in each well of the plate, than 20 μL MTT (2 mg/mL in HBSS) was added. After incubation (3 hr, 37° C., 5% CO2), the medium with MTT was removed and 200 μL DMSO were added at once to each sample. The samples were tested at 540 nm on Anthos HT II photometer.

[2] = test system: CCL-8 (mouse sarcoma); experiment: In vitro cytotoxicity, MTT test; conditions: 72 h, read-out: Cytotoxicity IC50, CCL-8
Experimental: as §1

[3] = test system: HT-1080 (human fibrosarcoma); experiment: In vitro cytotoxicity, MTT test; conditions: HT-1080, MTT, 72 h, read-out: Cytotoxicity IC50, HT-1080
Experimental: as §1

[4] = test system: HepG2 (human hepatocellular carcinoma); experiment: In vitro cytotoxicity, MTT test; conditions: HepG2, MTT, 72 h, read-out: Cytotoxicity IC50, HepG2
Experimental: as §1

[5] = test system: MCF-7 (human breast adenocarcinoma, estrogen-positive); experiment: In vitro cytotoxicity, MTT test; conditions: MCF7, MTT, 72 h, read-out: Cytotoxicity IC50, MCF-7
Experimental: as §1

[6] = test system: MDA-MB-435s (human melanoma); experiment: In vitro cytotoxicity, MTT test; conditions: MTT, 72 h, read-out: Cytotoxicity IC50, MDA-MB-435s
Experimental: as §1

[7] = test system: MES-SA (human uterus sarcoma); experiment: In vitro cytotoxicity, MTT test; conditions: MTT, 72 h, read-out: Cytotoxicity IC50, MES-SA
Experimental: as §1

[8] = test system: MG-22A (mouse hepatoma); experiment: In vitro cytotoxicity, MTT test; conditions: MTT, 72 h, read-out: Cytotoxicity IC50, MG-22A
Experimental: as §1

[9] = test system: SH-SY5Y (human neuroblastoma); experiment: In vitro cytotoxicity, MTT test; conditions: 72 h, MTT, read-out: Cytotoxicity IC50, SHSY5Y
Experimental: as §1

[10] = Basal cytotoxicity test, Neutral Red Uptake (NRU) assay; conditions: for LD50 at 24 h: mouse, po, acute oral LD50 calculated from 3T3 NRU IC50 by regression formula, read-out: Basal cytotoxicity Estimated* LD50; for IC50 at 24 h: normal mouse embryo fibroblasts, read-out: Cytotoxicity IC50, 3T3
Experimental: In parallel, the borderline concentration relevant to the highest tolerated dose has been determined for each compound using the NIH 3T3 (mouse embryo fibroblasts) cell line and the basal cytotoxicity obtained has then been used to predict the starting doses for in vivo acute oral LD50 values in rodents.
the Neutral Red Uptake (NRU) assay was performed according to the standard protocol of Stokes modified by the NICEATM-ECVAM validation study. The NRU cytotoxicity assay procedure is based on the ability of viable cells to incorporate and bind Neutral Red, a supravitally dye. Balb/c 3T3 (Mouse Swiss Albino embryo fibroblast) cells (9000 cells/well) were placed into 96-well plates for 24 h in Dulbecco's modified Eagle's (DMEM) medium containing 5% fetal bovine serum. The cells were then exposed to the test compounds over a range of […] concentrations (1000, 316, 100, 31, 10, 3, 1 μg/ml) for 24 h. Untreated cells were used as a control. After 24 h, the medium was removed from all plates. Then, 250 μL of Neutral Red solution were added (0.05 mg/mL NR in DMEM 24 h pre-incubated at 37° C. and then filtered before use through 0.22-μm syringe filter). Plates were incubated for 3 h and then cells were washed three times with PBS. The dye within viable cells was released by extraction with a mixture of acetic acid, ethanol and water (1:50:49). Absorbance of Neutral Red was measured using a spectrophotometer multiplate reader (TECAN, Infinite M1000) at 540 nm. The percentage of living cells was calculated using the formula: OD (treated cells)*100/OD (control cells). The IC50 values were calculated using the programme Graph Pad Prism® 3.0.
Data from the in vitro tests were used for estimating the starting dose for acute oral systemic toxicity tests in rodents. […] The value is recalculated to mg/kg and compounds are evaluated in accordance with four toxicity categories: category 1: LD50≤5 mg/kg (highly toxic); category 2: 5<LD50≤50 mg/kg (moderately toxic); category 3: 50<LD50≤300 mg/kg (slightly toxic); category 4: 300<LD50≤2 000 mg/kg (practically non-toxic).

SMILES	IC50 ([1]; Homo sapiens, A549, 72 h)	IC50 ([2]; MTT)	IC50 [3]	IC50 [4]	IC50 [5]	IC50 [6]	IC50 [7]	IC50 [8]	IC50 ([9]; Homo sapiens, SH-SY5Y)	LD50 at 24 h [10]	IC50 at 24 h [10]	IC50 [1]	IC50 [9]	IC50 [2]
COCCN(CCOC)C(=O)c1cc2ccc3c(Br)c(C4=CCCCC4)[se]c3c2oc1=O [Compound I-21, 7-Bromo-8-(cyclohex-1-en-1-yl)-N,N-bis(2-methoxyethyl)-2-oxo-2H-selenopheno[3,2-h]chromene-3-carboxamide]	61 ± 6 µM	100 ± 8 µM	51 ± 1 µM	51 ± 7 µM	92 ± 12 µM	76 ± 4 µM	73 ± 3 µM	46 ± 6 µM	139 ± 6 µM	700 µmol/kg and 384 mg/kg	131 ± 7 µM	–	–	–
COC(=O)c1cc2ccc3c(Br)c(C4(O)CCCCC4)[se]c3c2oc1=O [Compound I-3, Methyl 7-bromo-8-(1-hydroxycyclohexyl)-2-oxo-2H-selenopheno[3,2-h]chromene-3-carboxylate]	≤ 19 µM	186 ± 9 µM	27 ± 1 µM	> 117 µM	29 ± 2 µM	64 ± 6 µM	66 ± 3 µM	33 ± 6 µM	≤ 19 µM	> 5600 µmol/kg	207 ± 9 µM	19 ± 2 µM	19 ± 3 µM	–
COC1(c2[se]c3c(ccc4cc(C(=O)O[C@H]5CC[C@@]6(C)C(=CC[C@H]7[C@@H]8CC[C@H]([C@H](C)CCCC(C)C)[C@@]8(C)CC[C@@H]76)C5)c(=O)oc43)c2Br)CCCCC1 [Compound I-18, (3S,8S,9S,10R,13R,14S,17R)-10,13-Dimethyl-17-((R)-6-methylheptan-2-yl)-2,3,4,7,8,9,10,11,12,13,14,15,16,17-tetradecahydro-1H-cyclopenta[a]phenanthren-3-yl-7-bromo-8-(1-methoxycyclohexyl)-2-oxo-2H-selenopheno[3,2-h]chromene-3-carboxylate]	> 117 µM	> 117 µM	> 117 µM	> 117 µM	> 117 µM	> 117 µM	> 117 µM	> 117 µM	> 117 µM	3700 µmol/kg and 3190 mg/kg	> 117 µM	–	–	–
COC1(c2[se]c3c(ccc4cc(C(=O)N5CCOCC5)c(=O)oc43)c2Br)CCCCC1 [Compound I-22, 7-Bromo-8-(1-methoxycyclohexyl)-3-(morpholine-4-carbonyl)-2H-selenopheno[3,2-h]chromen-2-one]	43 ± 4 µM	39 ± 3 µM	38 ± 2 µM	47 ± 2 µM	18 ± 2 µM	43 ± 3 µM	41 ± 2 µM	37 ± 1 µM	98 ± 3 µM	300 µmol/kg and 195 mg/kg	47 ± 4 µM	–	–	–
COC(=O)c1cc2ccc3c(Br)c(C4=CCCC4)[se]c3c2oc1=O [Compound I-2, Methyl 7-bromo-8-(cyclopent-1-en-1-yl)-2-oxo-2H-selenopheno[3,2-h]chromene-3-carboxylate]	122 ± 8 µM	82 ± 8 µM	110 ± 12 µM	197 ± 24 µM	281 ± 12 µM	142 ± 12 µM	155 ± 3 µM	> 235 µM	> 117 µM	500 µmol/kg and 194 mg/kg	> 235 µM	–	–	–
COC1(c2[se]c3c(ccc4cc(C(=O)O)c(=O)oc43)c2Br)CCCCC1 [Compound I-12, 7-Bromo-8-(1-methoxycyclohexyl)-2-oxo-2H-selenopheno[3,2-h]chromene-3-carboxylic acid]	61 ± 1 µM	–	51 ± 2 µM	97 ± 7 µM	141 ± 10 µM	127 ± 12 µM	> 206 µM	> 206 µM	193 ± 2 µM	300 µmol/kg and 134 mg/kg	213 ± 7 µM	–	–	134 ± 6 µM
COC(=O)c1cc2ccc3c(Br)c(C(C)(C)O)[se]c3c2oc1=O [Compound I-1, Methyl 7-bromo-8-(2-hydroxypropan-2-yl)-2-oxo-2H-selenopheno[3,2-h]chromene-3-carboxylate]	196 ± 9 µM	> 225 µM	225 ± 11 µM	> 117 µM	221 ± 13 µM	95 ± 8 µM	95 ± 9 µM	> 122 µM	32 µM	> 6000 µmol/kg and > 2660 mg/kg	225 ± 11 µM	–	–	–
O=C(c1cc2ccc3c(Br)c(C4=CCCCC4)[se]c3c2oc1=O)N1CCCCC1 [Compound I-19, 7-Bromo-8-(cyclohex-1-en-1-yl)-3-(piperidine-1-carbonyl)-2H-selenopheno[3,2-h]chromen-2-one]	100 ± 3 µM	> 193 µM	50 ± 5 µM	103 ± 15 µM	125 ± 8 µM	51 ± 8 µM	105 ± 4 µM	41 ± 2 µM	> 117 µM	1000 µmol/kg and 500 mg/kg	161 ± 23 µM	–	–	–
CCCCCCCCOC(=O)c1cc2ccc3c(Br)c(C4=CCCCC4)[se]c3c2oc1=O [Compound I-16, Octyl 7-bromo-8-(cyclohex-1-en-1-yl)-2-oxo-2H-selenopheno[3,2-h]chromene-3-carboxylate]	> 117 µM	–	> 117 µM	> 177 µM	> 117 µM	> 122 µM	> 117 µM	> 122 µM	> 117 µM	876 mg/kg	> 177 µM	–	–	–
COC(=O)c1cc2ccc3c(Br)c(C4(OC)CCCCC4)[se]c3c2oc1=O [Compound I-4, Methyl 7-bromo-8-(1-methoxycyclohexyl)-2-oxo-2H-selenopheno[3,2-h]chromene-3-carboxylate]	> 201 µM	95 ± 2 µM	52 ± 5 µM	103 ± 5 µM	46 ± 14 µM	103 ± 4 µM	201 ± 5 µM	446 ± 6 µM	> 117 µM	1100 µmol/kg and 548 mg/kg	198 ± 2 µM	–	–	–
CC(C)CCC[C@@H](C)[C@H]1CC[C@H]2[C@@H]3CC=C4C[C@@H](OC(=O)c5cc6ccc7c(Br)c(C8=CCCCC8)[se]c7c6oc5=O)CC[C@]4(C)[C@H]3CC[C@]12C [Compound I-17, (3S,8S,9S,10R,13R,14S,17R)-10,13-Dimethyl-17-((R)-6-methylheptan-2-yl)-2,3,4,7,8,9,10,11,12,13,14,15,16,17-tetradecahydro-1H-cyclopenta[a]phenanthren-3-yl-7-bromo-8-(cyclohex-1-en-1-yl)-2-oxo-2H-selenopheno[3,2-h]chromene-3-carboxylate]	> 117 µM	–	> 117 µM	> 117 µM	> 117 µM	–	> 117 µM	–	> 117 µM	3000 µmol/kg and 2450 mg/kg	> 117 µM	–	–	–
